Experimental data: patent US9242970B2 (ACTELION PHARMACEUTICALS LTD., priority 2010, dated 2016)

Tests used:
rat [1] = details: cited from earlier work
rat [2] = details: rat model; cited from earlier work
rat [3] = details: cited from earlier work; remark: listed apart in the source
human orexin-2 receptor = human orexin-2 receptor (Homo sapiens (Human), UniProt O43614); assay: In vitro assay: intracellular calcium measurements (FLIPR), antagonistic activity; format: cell-based; details: CHO cells, 3 nM orexin-A, compound incubation 120 min; marked values are geometric means of n = 2-6; read-out: IC50 OX2
human orexin-1 receptor = human orexin-1 receptor (Homo sapiens (Human), UniProt O43613); assay: as above; format: cell-based; details: CHO cells, 3 nM orexin-A, compound incubation 120 min; marked values are geometric means of n = 2-6; read-out: IC50 OX1
Chain of human orexin-1 receptor (O43613 whole entry): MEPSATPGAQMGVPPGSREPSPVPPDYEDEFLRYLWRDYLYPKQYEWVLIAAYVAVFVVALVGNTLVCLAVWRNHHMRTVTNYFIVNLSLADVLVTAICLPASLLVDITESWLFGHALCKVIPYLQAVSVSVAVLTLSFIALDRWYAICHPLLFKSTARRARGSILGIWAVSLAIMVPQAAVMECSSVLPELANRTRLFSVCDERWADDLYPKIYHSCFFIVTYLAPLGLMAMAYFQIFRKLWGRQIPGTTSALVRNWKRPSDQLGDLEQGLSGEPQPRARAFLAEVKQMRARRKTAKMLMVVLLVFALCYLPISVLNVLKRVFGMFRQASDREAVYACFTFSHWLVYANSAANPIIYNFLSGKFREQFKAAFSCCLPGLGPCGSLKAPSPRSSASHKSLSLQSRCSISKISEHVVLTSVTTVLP

Chain of human orexin-2 receptor (O43614 whole entry): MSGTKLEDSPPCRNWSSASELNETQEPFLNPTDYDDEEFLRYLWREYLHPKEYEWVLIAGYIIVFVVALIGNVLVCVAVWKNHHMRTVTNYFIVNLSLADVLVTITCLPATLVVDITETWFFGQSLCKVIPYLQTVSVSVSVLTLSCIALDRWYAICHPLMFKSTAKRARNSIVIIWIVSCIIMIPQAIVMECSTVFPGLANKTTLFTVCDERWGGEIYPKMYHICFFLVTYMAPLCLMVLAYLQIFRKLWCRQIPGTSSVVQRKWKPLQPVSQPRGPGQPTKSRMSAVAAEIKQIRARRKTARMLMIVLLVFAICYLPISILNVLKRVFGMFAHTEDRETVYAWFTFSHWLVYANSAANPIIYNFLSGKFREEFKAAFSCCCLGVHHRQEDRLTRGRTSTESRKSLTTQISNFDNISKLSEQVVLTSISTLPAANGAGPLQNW

CNC(=O)[C@@H](c1ccccc1)N1CCc2cc(OC)c(OC)cc2[C@@H]1CCc1ccc(C(F)(F)F)cc1 [(2R)-2-{(1S)-6,7-dimethoxy-1-[2-(4-trifluoromethyl-phenyl)-ethyl]-3,4-dihydro-1H-isoquinolin-2-yl}-N-methyl-2-phenyl-acetamide]
activity in post-traumatic stress disorder model (rat [1]): active
memory function (rat [2]): enhance memory function
alertness (active wake and locomotion) (rat [3]): decrease alertness
time spent in REM and NREM sleep (rat [3]): dose-dependently increase the time spent in both REM and NREM sleep

COc1cccc(OC)c1C1CC(C)C(=O)N1Cc1ccc(OCC(F)(F)F)cc1 (stereo not shown) [Example 418, 5-(2,6-dimethoxyphenyl)-3-methyl-1-(4-(2,2,2-trifluoroethoxy)benzyl)pyrrolidin-2-one]
IC50 (human orexin-2 receptor): 323 nM
IC50 (human orexin-1 receptor): 430 nM

COc1cccc(OC)c1C1CC(C)C(=O)N1Cc1cccc(OCC(F)F)c1 (stereo not shown) [Example 419, 1-(3-(2,2-difluoroethoxy)benzyl)-5-(2,6-dimethoxyphenyl)-3-methylpyrrolidin-2-one]
IC50 (human orexin-2 receptor): 173 nM
IC50 (human orexin-1 receptor): 143 nM

COc1cccc(OC)c1C1CC(C)C(=O)N1Cc1ccc(OCC(F)F)cc1 (stereo not shown) [Example 420, 1-(4-(2,2-difluoroethoxy)benzyl)-5-(2,6-dimethoxyphenyl)-3-methylpyrrolidin-2-one]
IC50 (human orexin-2 receptor): 549 nM
IC50 (human orexin-1 receptor): 586 nM

COc1cccc(OC)c1C1CC(C)C(=O)N1Cc1cccc(OCCF)c1 (stereo not shown) [Example 421, 5-(2,6-dimethoxyphenyl)-1-(3-(2-fluoroethoxy)benzyl)-3-methylpyrrolidin-2-one]
IC50 (human orexin-2 receptor): 237 nM
IC50 (human orexin-1 receptor): 498 nM

COc1cccc(OC)c1C1CC(C)C(=O)N1Cc1ccc(OCCF)cc1 (stereo not shown) [Example 422, 5-(2,6-dimethoxyphenyl)-1-(4-(2-fluoroethoxy)benzyl)-3-methylpyrrolidin-2-one]
IC50 (human orexin-2 receptor): 1040 nM
IC50 (human orexin-1 receptor): 863 nM

COc1cccc(OC)c1C1CC(C)C(=O)N1Cc1cccc(OC(C)C)c1 (stereo not shown) [Example 423, 5-(2,6-dimethoxyphenyl)-1-(3-isopropoxybenzyl)-3-methylpyrrolidin-2-one]
IC50 (human orexin-2 receptor): 93 nM
IC50 (human orexin-1 receptor): 101 nM

COc1cccc(OC)c1C1CC(C)C(=O)N1Cc1cccc(OC(F)(F)C(F)F)c1 (stereo not shown) [Example 424, 5-(2,6-dimethoxyphenyl)-3-methyl-1-(3-(1,1,2,2-tetrafluoroethoxy)benzyl)pyrrolidin-2-one]
IC50 (human orexin-2 receptor): 13 nM
IC50 (human orexin-1 receptor): 27 nM

COc1cc(CN2C(=O)C(C)CC2c2c(OC)cccc2OC)ccc1OC(F)F (stereo not shown) [Example 425, 1-(4-(difluoromethoxy)-3-methoxybenzyl)-5-(2,6-dimethoxyphenyl)-3-methylpyrrolidin-2-one]
IC50 (human orexin-2 receptor): 235 nM
IC50 (human orexin-1 receptor): 311 nM

COc1cccc(OC)c1C1CC(C)C(=O)N1Cc1ccc2sc3ccccc3c2c1 (stereo not shown) [Example 426, 1-(dibenzo[b,d]thiophen-2-ylmethyl)-5-(2,6-dimethoxyphenyl)-3-methylpyrrolidin-2-one]
IC50 (human orexin-2 receptor): 8 nM
IC50 (human orexin-1 receptor): 6 nM

COc1ccc2nc(C)oc2c1C1CCCC(=O)N1Cc1cccc(-c2ccccc2)c1 (stereo not shown) [Example 440, 1-([1,1′-biphenyl]-3-ylmethyl)-6-(6-methoxy-2-methylbenzo[d]oxazol-7-yl)piperidin-2-one]
IC50 (human orexin-2 receptor): 91 nM
IC50 (human orexin-1 receptor): 46 nM

COc1ccc2nc(C)oc2c1C1CCCC(=O)N1Cc1cccc(-c2csc(C)n2)c1 (stereo not shown) [Example 441, 6-(6-methoxy-2-methylbenzo[d]oxazol-7-yl)-1-(3-(2-methylthiazol-4-yl)benzyl)piperidin-2-one]
IC50 (human orexin-2 receptor): 62 nM
IC50 (human orexin-1 receptor): 16 nM

CCc1nc2ccc(OC)c(C3CCCC(=O)N3Cc3cccc(-c4csc(C)n4)c3)c2o1 (stereo not shown) [Example 442, 6-(2-ethyl-6-methoxybenzo[d]oxazol-7-yl)-1-(3-(2-methylthiazol-4-yl)benzyl)piperidin-2-one]
IC50 (human orexin-2 receptor): 33 nM
IC50 (human orexin-1 receptor): 10 nM

COc1ccc2c(c1C1CCCC(=O)N1Cc1cccc(-c3csc(C)n3)c1)OCCO2 (stereo not shown) [Example 443, 6-(6-methoxy-2,3-dihydrobenzo[b][1,4]dioxin-5-yl)-1-(3-(2-methylthiazol-4-yl)benzyl)piperidin-2-one]
IC50 (human orexin-2 receptor): 13 nM
IC50 (human orexin-1 receptor): 5 nM

COc1ccc2c(c1C1CCCC(=O)N1Cc1cccc(-c3ncc(C)s3)c1)OCCO2 (stereo not shown) [Example 444, 6-(6-methoxy-2,3-dihydrobenzo[b][1,4]dioxin-5-yl)-1-(3-(5-methylthiazol-2-yl)benzyl)piperidin-2-one]
IC50 (human orexin-2 receptor): 8 nM
IC50 (human orexin-1 receptor): 7 nM

COc1ccc2ccccc2c1C1CCCC(=O)N1Cc1cccc(-c2ncccn2)c1 (stereo not shown) [Example 445, 6-(2-methoxynaphthalen-1-yl)-1-(3-(pyrimidin-2-yl)benzyl)piperidin-2-one]
IC50 (human orexin-2 receptor): 90 nM
IC50 (human orexin-1 receptor): 21 nM

COc1ccc2ccccc2c1C1CCCC(=O)N1Cc1cccc(-c2ncc(C)s2)c1 (stereo not shown) [Example 446, 6-(2-methoxynaphthalen-1-yl)-1-(3-(5-methylthiazol-2-yl)benzyl)piperidin-2-one]
IC50 (human orexin-2 receptor): 59 nM
IC50 (human orexin-1 receptor): 12 nM

COc1ccc2ccccc2c1C1CCCC(=O)N1Cc1cccc(Oc2ccccc2)c1 (stereo not shown) [Example 447, 6-(2-methoxynaphthalen-1-yl)-1-(3-phenoxybenzyl)piperidin-2-one]
IC50 (human orexin-2 receptor): 92 nM
IC50 (human orexin-1 receptor): 112 nM

COc1ccc2c(c1C1CCCC(=O)N1Cc1cccc(-c3csc(C)n3)c1)OCO2 (stereo not shown) [Example 448, 6-(5-methoxybenzo[d][1,3]dioxol-4-yl)-1-(3-(2-methylthiazol-4-yl)benzyl)piperidin-2-one]
IC50 (human orexin-2 receptor): 11 nM
IC50 (human orexin-1 receptor): 17 nM

COc1ccc2c(c1C1CCCC(=O)N1Cc1ccc(OC(F)(F)F)cc1)OCO2 (stereo not shown) [Example 449, 6-(5-methoxybenzo[d][1,3]dioxol-4-yl)-1-(4-(trifluoromethoxy)benzyl)piperidin-2-one]
IC50 (human orexin-2 receptor): 23 nM
IC50 (human orexin-1 receptor): 351 nM

O=C1CCCCC(c2ccccc2-c2ccncc2)N1Cc1cccc(-c2nccs2)c1 (stereo not shown) [Example 450, 7-(2-(pyridin-4-yl)phenyl)-1-(3-(thiazol-2-yl)benzyl)azepan-2-one]
IC50 (human orexin-2 receptor): 15 nM
IC50 (human orexin-1 receptor): 561 nM

O=C1CCCCC(c2ccccc2-c2cncs2)N1Cc1cccc(-c2nccs2)c1 (stereo not shown) [Example 451, 1-(3-(thiazol-2-yl)benzyl)-7-(2-(thiazol-5-yl)phenyl)azepan-2-one]
IC50 (human orexin-2 receptor): 19 nM
IC50 (human orexin-1 receptor): 427 nM

O=C1CCCCC(c2ccccc2-c2cscn2)N1Cc1cccc(-c2nccs2)c1 (stereo not shown) [Example 452, 1-(3-(thiazol-2-yl)benzyl)-7-(2-(thiazol-4-yl)phenyl)azepan-2-one]
IC50 (human orexin-2 receptor): 15 nM
IC50 (human orexin-1 receptor): 105 nM

O=C1CCCCC(c2ccccc2-c2cccnc2)N1Cc1cccc(-c2nccs2)c1 (stereo not shown) [Example 453, 7-(2-(pyridin-3-yl)phenyl)-1-(3-(thiazol-2-yl)benzyl)azepan-2-one]
IC50 (human orexin-2 receptor): 93 nM
IC50 (human orexin-1 receptor): 381 nM

O=C1CCCCC(c2ccccc2-c2ccccc2)N1Cc1cccc(-c2nccs2)c1 (stereo not shown) [Example 454, 7-([1,1′-biphenyl]-2-yl)-1-(3-(thiazol-2-yl)benzyl)azepan-2-one]
IC50 (human orexin-2 receptor): 77 nM
IC50 (human orexin-1 receptor): 182 nM

COc1ccc2ncoc2c1C1CCCC(=O)N1Cc1cccc(-c2csc(C)n2)c1 (stereo not shown) [Example 455, 6-(6-methoxybenzo[d]oxazol-7-yl)-1-(3-(2-methylthiazol-4-yl)benzyl)piperidin-2-one]
IC50 (human orexin-2 receptor): 102 nM
IC50 (human orexin-1 receptor): 57 nM

O=C1CCCC(c2ccnn2-c2ccccc2)N1Cc1cccc(-c2ccccc2)c1 (stereo not shown) [Example 456, 1-([1,1′-biphenyl]-3-ylmethyl)-6-(1-phenyl-1H-pyrazol-5-yl)piperidin-2-one]
IC50 (human orexin-2 receptor): 716 nM
IC50 (human orexin-1 receptor): 654 nM

COc1ccc2c(c1C1CCCC(=O)N1Cc1cccc(-c3ccccc3)c1)OCO2 (stereo not shown) [Example 457, 1-([1,1′-biphenyl]-3-ylmethyl)-6-(5-methoxybenzo[d][1,3]dioxol-4-yl)piperidin-2-one]
IC50 (human orexin-2 receptor): 30 nM
IC50 (human orexin-1 receptor): 59 nM

COc1ccc2c(c1C1CCCC(=O)N1Cc1cccc(Oc3ccccc3)c1)OCO2 (stereo not shown) [Example 458, 6-(5-methoxybenzo[d][1,3]dioxol-4-yl)-1-(3-phenoxybenzyl)piperidin-2-one]
IC50 (human orexin-2 receptor): 14 nM
IC50 (human orexin-1 receptor): 142 nM

COc1ccc2c(c1C1CCCC(=O)N1Cc1csc(-c3ccccc3)n1)OCO2 (stereo not shown) [Example 459, 6-(5-methoxybenzo[d][1,3]dioxol-4-yl)-1-((2-phenylthiazol-4-yl)methyl)piperidin-2-one]
IC50 (human orexin-2 receptor): 40 nM
IC50 (human orexin-1 receptor): 108 nM

rac-(3R*,5S*)-(3-chloro-4-(trifluoromethoxy)benzyl)-5-(2-ethoxy-6-fluorophenyl)-3-hydroxypyrrolidin-2-one [Example 429]
IC50 (human orexin-2 receptor): 15 nM
IC50 (human orexin-1 receptor): 1160 nM
